From paper PMC4268798, “Acetylcholinesterase of the sand fly, Phlebotomus papatasi (Scopoli): construction, expression and biochemical properties of the G119S orthologous mutant” (Parasites & Vectors, 2014)
pIC50: −log10 of the molar value.

Molecular target: T1, rPpAChE1 (Phlebotomus papatasi, UniProt M1F887)
T1 construct: gene AChE; cell lysate assayed
Experiment: biochemical

Point of comparison: `CNC(=O)Oc1cnn(CCC(C)C)c1` [compound 4, 1-isopentyl-1H-pyrazole-4-yl methylcarbamate], pIC50 7.12. Against it:
- CC[n+]1c(-c2ccccc2)c2cc(N)ccc2c2ccc(N)cc21 [Ethidium Bromide] — 2.35 log units lower, 4.77
- CNC(=O)Oc1ccccc1OC(C)C [Propoxur] — 0.46 log units lower, 6.66
- COc1cc2c3cc1Oc1cc(ccc1O)C[C@@H]1c4c(cc(OC)c(O)c4Oc4ccc(cc4)C[C@@H]3N(C)CC2)CC[N+]1(C)C [Tubocurarine] — 3.28 log units lower, 3.84
- Nc1c2c(nc3ccccc13)CCCC2 [Tacrine] — within 0.2 log units, 7.17
- CNC(=O)Oc1cccc(C(C)(C)C)c1 [compound 2, 3-(tert-butyl)phenyl methylcarbamate] — 0.32 log units higher, 7.44
- CCC(C)n1cc(OC(=O)NC)cn1 (stereo not drawn) [compound 3, 1-(sec-butyl)-1H-pyrazol-4-yl methylcarbamate] — 0.77 log units higher, 7.89
- CCOC(=O)CC(SP(=O)(OC)OC)C(=O)OCC (stereo not drawn) [Malaoxon] — 1.24 log units higher, 8.36
- CNC(=O)Oc1cccc2c1OC(C)(C)C2 [Carbofuran] — 0.50 log units higher, 7.62
- CNC(=O)Oc1ccc2c(c1)[C@]1(C)CCN(C)[C@@H]1N2C [Eserine] — 1.37 log units higher, 8.49
- CNC(=O)Oc1cnn(CC(C)C)c1 [compound 5, 1-isobutyl-1H-pyrazol-4-yl methylcarbamate] — the same, 7.12

Tested on: CC(=O)SCC[N+](C)(C)C
Experiment: modified Ellman assay
Format: biochemical, Phlebotomus papatasi

rPpAChE1 (Phlebotomus papatasi) gave a Km of 24 µM.
